Patent US11072614B2, “Polymorphs of sepiapterin and salts thereof” (PTC Therapeutics MP, Inc., priority 2016, dated 2021)

Experiments:
Type in all cases: physicochemical
[1] = Storage stability study of solid forms, HPLC purity (Example 11); details: for % of Initial / Purity (area %): 10% RH
Procedure: (§1) Form A and F samples were placed in chambers with silica gel to remove water (the relative humidity was measured to be ˜10% RH) at different temperatures. Form D samples were placed in chambers with water (relative humidity was estimated to be ˜100% RH) at different temperatures.
(§2) The HPLC purities and XRD patterns were obtained for each of Form A/F/D samples stored at various temperatures.

[2] = Storage stability study of solid forms, form change by XRD (Example 11); details: 10% RH
Procedure: For X-ray powder diffraction analysis, a PANalytical Empyrean X-ray powder diffractometer was used. The parameters are as follows:
as §1, §2

[3] = Storage stability of polymorphs, HPLC sepiapterin and impurity profile (Example 12); parameters: Impurity RRT 1.06 / Impurity RRT 1.08 / Impurity RRT 1.17 / Impurity RRT 1.21 / Impurity RRT 1.25 / Impurity RRT 0.62 / Impurity RRT 0.89 / Impurity RRT 0.95 / Impurity RRT 0.60: unit not given here
Procedure: Samples of sepiapterin free base polymorph Forms D, F, and A were stored at room temperature (RT), 35° C., and 50° C. The samples were analyzed by HPLC at 1 week and 4 week intervals. The HPLC parameters were as follows: [table]

[4] = Physical form stability to grinding and sieving (XRD before and after)
Procedure: A sample of sepiapterin free base was obtained commercially. […] The sepiapterin sample contained particles with an average particle size over 100 μm. The XRD pattern was determined before and after grinding to reduce the particle size such that it passes through a 140 mesh screen. This polymorph of sepiapterin free base is referred to as Form A herein.

[5] = 35° C./10% RH, 1 w, listed as Polymorph A
[6] = 35° C./10% RH, 4 w, listed as Polymorph A
[7] = 50° C./10% RH, 1 w, listed as Polymorph A
[8] = 50° C./10% RH, 4 w, listed as Polymorph A
[9] = RT/10% RH, 1 w, listed as Polymorph A
[10] = RT/10% RH, 4 w, listed as Polymorph A

% of Initial ([1]; 35° C., storage 1 week): 98.6%
Purity (area %) ([1]; 35° C., storage 1 week): 98.0 area %
% of Initial ([1]; 35° C., storage 4 weeks): 96.7%
Purity (area %) ([1]; 35° C., storage 4 weeks): 96.1 area %
% of Initial ([1]; 50° C., storage 1 week): 95.8%
Purity (area %) ([1]; 50° C., storage 1 week): 95.2 area %
% of Initial ([1]; 50° C., storage 4 weeks): 89.1%
Purity (area %) ([1]; 50° C., storage 4 weeks): 88.5 area %
% of Initial ([1]; RT, storage 1 week): 99.5%
Purity (area %) ([1]; RT, storage 1 week): 98.8 area %
% of Initial ([1]; RT, storage 4 weeks): 98.8%
Purity (area %) ([1]; RT, storage 4 weeks): 98.2 area %
purity of initial samples by HPLC ([1]; initial, before storage): 99.3 area %
stability as determined by HPLC (in words) ([1]; storage at RT, 35° C., 50° C., 1 and 4 weeks): significantly less stability
Form change ([2]; 35° C., storage 1 week): No
Form change ([2]; 35° C., storage 4 weeks): No
Form change ([2]; 50° C., storage 1 week): No
Form change ([2]; 50° C., storage 4 weeks): No
Form change ([2]; RT, storage 1 week): No
Form change ([2]; RT, storage 4 weeks): No
Impurity RRT 0.62 ([3]; 35° C./10% RH, 1 w): 0.24
Impurity RRT 0.89 ([3]; 35° C./10% RH, 1 w): <0.05
Impurity RRT 1.06 ([3]; 35° C./10% RH, 1 w): <0.05
Impurity RRT 1.21 ([3]; 35° C./10% RH, 1 w): <0.05
Impurity RRT 1.25 ([3]; 35° C./10% RH, 1 w): <0.05
Impurity RRT 0.95 [3, 5]: 1.36
Impurity RRT 1.08 [3, 5]: 0.28
Impurity RRT 1.17 [3, 5]: 0.16
Sepiapterin RRT 1.00 (amount of sepiapterin) [3, 5]: 97.97%
Impurity RRT 0.62 ([3]; 35° C./10% RH, 4 w): 1.03
Impurity RRT 0.89 ([3]; 35° C./10% RH, 4 w): <0.05
Impurity RRT 1.06 ([3]; 35° C./10% RH, 4 w): <0.05
Impurity RRT 1.08 ([3]; 35° C./10% RH, 4 w): <0.05
Impurity RRT 1.21 ([3]; 35° C./10% RH, 4 w): <0.05
Impurity RRT 1.25 ([3]; 35° C./10% RH, 4 w): <0.05
Impurity RRT 0.95 [3, 6]: 2.70
Impurity RRT 1.17 [3, 6]: 0.16
Sepiapterin RRT 1.00 (amount of sepiapterin) [3, 6]: 96.06%
Impurity RRT 0.62 ([3]; 50° C./10% RH, 1 w): 0.68
Impurity RRT 0.89 ([3]; 50° C./10% RH, 1 w): <0.05
Impurity RRT 1.06 ([3]; 50° C./10% RH, 1 w): 0.45
Impurity RRT 1.21 ([3]; 50° C./10% RH, 1 w): <0.05
Impurity RRT 1.25 ([3]; 50° C./10% RH, 1 w): <0.05
Impurity RRT 0.95 [3, 7]: 3.48
Impurity RRT 1.08 [3, 7]: 0.08
Impurity RRT 1.17 [3, 7]: 0.16
Sepiapterin RRT 1.00 (amount of sepiapterin) [3, 7]: 95.15%
Impurity RRT 0.62 ([3]; 50° C./10% RH, 4 w): 2.59
Impurity RRT 0.89 ([3]; 50° C./10% RH, 4 w): 0.06
Impurity RRT 1.06 ([3]; 50° C./10% RH, 4 w): <0.05
Impurity RRT 1.17 ([3]; 50° C./10% RH, 4 w): 0.17
Impurity RRT 1.21 ([3]; 50° C./10% RH, 4 w): 0.06
Impurity RRT 1.25 ([3]; 50° C./10% RH, 4 w): 0.11
Impurity RRT 0.95 [3, 8]: 7.67
Impurity RRT 1.08 [3, 8]: 0.85
Sepiapterin RRT 1.00 (amount of sepiapterin) [3, 8]: 88.49%
Sepiapterin RRT 1.00 (amount of sepiapterin) ([3]; 50° C./10% RH, 4 w, listed as polymorph A): 88.49%
Impurity RRT 0.89 ([3]; Initial): <0.05
Impurity RRT 1.06 ([3]; Initial): <0.05
Impurity RRT 1.08 ([3]; Initial): <0.05
Impurity RRT 1.17 ([3]; Initial): 0.17
Impurity RRT 1.21 ([3]; Initial): <0.05
Impurity RRT 1.25 ([3]; Initial): <0.05
Impurity RRT 0.62 ([3]; Initial, listed as Polymorph A): 0.08
Impurity RRT 0.95 ([3]; Initial, listed as Polymorph A): 0.42
Sepiapterin RRT 1.00 (amount of sepiapterin) ([3]; Initial, listed as Polymorph A): 99.33%
Sepiapterin RRT 1.00 (amount of sepiapterin) ([3]; Initial, listed as polymorph A): 99.33%
Impurity RRT 0.62 ([3]; RT/10% RH, 1 w): 0.16
Impurity RRT 0.89 ([3]; RT/10% RH, 1 w): <0.05
Impurity RRT 1.06 ([3]; RT/10% RH, 1 w): <0.05
Impurity RRT 1.17 ([3]; RT/10% RH, 1 w): 0.16
Impurity RRT 1.21 ([3]; RT/10% RH, 1 w): <0.05
Impurity RRT 1.25 ([3]; RT/10% RH, 1 w): <0.05
Impurity RRT 0.95 [3, 9]: 0.77
Impurity RRT 1.08 [3, 9]: 0.11
Sepiapterin RRT 1.00 (amount of sepiapterin) [3, 9]: 98.80%
Impurity RRT 0.62 ([3]; RT/10% RH, 4 w): 0.37
Impurity RRT 0.89 ([3]; RT/10% RH, 4 w): <0.05
Impurity RRT 1.06 ([3]; RT/10% RH, 4 w): <0.05
Impurity RRT 1.08 ([3]; RT/10% RH, 4 w): <0.05
Impurity RRT 1.17 ([3]; RT/10% RH, 4 w): 0.16
Impurity RRT 1.21 ([3]; RT/10% RH, 4 w): <0.05
Impurity RRT 1.25 ([3]; RT/10% RH, 4 w): <0.05
Impurity RRT 0.95 [3, 10]: 1.29
Sepiapterin RRT 1.00 (amount of sepiapterin) [3, 10]: 98.18%
physical form stability to grinding and sieving [4]: confirms the physical form stability
SMILES: C[C@H](O)C(=O)C1=Nc2c(nc(N)[nH]c2=O)NC1 [Form A, sepiapterin]
